In brackets after ≈: the same amount, converted by molar mass. Like-named read-outs stand apart in the source and are kept apart here.
Tests used:
Type in all cases: cell-based
[1] = system: Staphylococcus aureus X1.1; assay: MIC, standard agar-dilution assay, Staphylococcus aureus X1.1
[2] = system: Staphylococcus aureus V41; assay: MIC, standard agar-dilution assay, Staphylococcus aureus V41
[3] = system: Staphylococcus aureus X400; assay: MIC, standard agar-dilution assay, Staphylococcus aureus X400
[4] = system: Staphylococcus aureus S13E; assay: MIC, standard agar-dilution assay, Staphylococcus aureus S13E; details: Staphylococcus aureus, S13E
[5] = system: Staphylococcus epidermidis EPI1; assay: MIC, standard agar-dilution assay, Staphylococcus epidermidis EPI1
[6] = system: Staphylococcus epidermidis EPI2; assay: MIC, standard agar-dilution assay, Staphylococcus epidermidis EPI2
[7] = system: Streptococcus pyogenes C203; assay: MIC, standard agar-dilution assay, Streptococcus pyogenes C203
[8] = system: Streptococcus pneumoniae Park I; assay: microbe, parasite or virus in culture
[9] = system: Streptococcus Group D X66; assay: MIC, standard agar-dilution assay, Streptococcus Group D X66
Streptococcus Group 9960 = assay: MIC, standard agar-dilution assay, Streptococcus Group 9960; details: GROUP9960
[10] = system: Haemophilus influenzae Holt; assay: MIC, standard agar-dilution assay, Haemophilus influenzae Holt
[11] = system: Haemophilus influenzae R252; assay: MIC, standard agar-dilution assay, Haemophilus influenzae R252
Staphylococcus aureus = assay: MIC, broth-dilution microtiter test, Staphylococcus aureus
Description: (§1) The MIC's in Table X were obtained using conventional broth-dilution microtiter tests.

Streptococcus bovis 80 = assay: MIC, broth-dilution microtiter test, Streptococcus bovis 80; details: Streptococcus equinus; Streptococcus bovis 80; broth-dilution microtiter; read-out: MIC
Description: as §1

[12] = system: Pasteurella multocida 17E; assay: MIC, broth-dilution microtiter test, Pasteurella multocida 17E; details: Pasteurella multocida 17E; bovine isolate; broth-dilution microtiter; read-out: MIC
Description: as §1

[13] = system: Pasteurella multocida 60A; assay: MIC, broth-dilution microtiter test, Pasteurella multocida 60A; details: Pasteurella multocida 60A; avian isolate; broth-dilution microtiter; read-out: MIC
Description: as §1

[14] = system: Pasteurella hemolytica 22C; assay: MIC, broth-dilution microtiter test, Pasteurella hemolytica 22C; details: Pasteurella hemolytica 22C; broth-dilution microtiter; read-out: MIC
Description: as §1

Mycoplasma gallisepticum = assay: MIC, broth-dilution microtiter test, Mycoplasma gallisepticum; details: Mycoplasmoides gallisepticum
Description: as §1

Mycoplasma synoviae = assay: MIC, broth-dilution microtiter test, Mycoplasma synoviae; details: Mycoplasmopsis synoviae
Description: as §1

Mycoplasma hyorhinis = assay: MIC, broth-dilution microtiter test, Mycoplasma hyorhinis
Description: as §1

Mycoplasma hyopneumoniae = assay: MIC, broth-dilution microtiter test, Mycoplasma hyopneumoniae; details: Mesomycoplasma hyopneumoniae; Mycoplasma hyopneumoniae; broth-dilution microtiter; read-out: MIC
Description: as §1

[15] = Staphylococcus epidermidis, EPI1
[16] = Staphylococcus epidermidis, EPI2
[17] = Streptococcus pyogenes C203, agar dilution, read-out: MIC
[18] = Streptococcus Group D X66, agar dilution, read-out: MIC
[19] = Streptococcus Group 9960, agar dilution, read-out: MIC
[20] = Haemophilus influenzae Holt, ampicillin-sensitive strain, read-out: MIC
[21] = Mycoplasma synoviae, broth-dilution microtiter, read-out: MIC
[22] = Mycoplasma hyorhinis, broth-dilution microtiter, read-out: MIC
[23] = Streptococcus pneumoniae Park I, agar dilution, read-out: MIC
[24] = Mycoplasma gallisepticum, broth-dilution microtiter, read-out: MIC
[25] = Staphylococcus epidermidis EPI1, agar dilution, read-out: MIC
[26] = Haemophilus influenzae R252, ampicillin-resistant strain, read-out: MIC
[27] = broth-dilution microtiter, read-out: MIC
[28] = Staphylococcus aureus X400, methicillin-resistant strain, agar dilution, read-out: MIC

Compound `CCC1OC(=O)CC(O)C(C)C(OC2OC(C)C(OC3CC(C)(O)C(O)C(C)O3)C(N(C)C)C2O)C(CCF)CC(C)C(=O)C=CC(C)=CC1COC1OC(C)C(O)C(OC)C1OC` (stereo not drawn) [Compound 8, 20-DH-DO-20-Fluoro-tylosin] has an MIC ([1]; Staphylococcus aureus, X1.1) of 1 µg/mL (≈ 1.09 µM), an MIC ([2]; Staphylococcus aureus, V41) of 1 µg/mL (≈ 1.09 µM) and an MIC ([3]; Staphylococcus aureus, X400) of 2 µg/mL (≈ 2.17 µM). The MIC [4] was 1 µg/mL (≈ 1.09 µM), the MIC [5, 15] was 1 µg/mL (≈ 1.09 µM) and the MIC [6, 16] was 1 µg/mL (≈ 1.09 µM). It also gave an MIC [7, 17] of 4 µg/mL (≈ 4.35 µM), an MIC ([8]; Streptococcus pneumoniae) of 64 µg/mL (≈ 69.6 µM) and an MIC [9, 18] of over 128 µg/mL. The MIC (Streptococcus Group 9960; [19]) was over 128 µg/mL, the MIC [10, 20] was over 128 µg/mL and the MIC ([11]; Haemophilus influenzae, R252) was 128 µg/mL (≈ 139 µM). For the same compound, the MIC (Staphylococcus aureus) was 1.56 µg/mL (≈ 1.7 µM), the MIC (Streptococcus bovis 80) was over 50 µg/mL and the MIC [12] was over 50 µg/mL. The MIC [13] was over 50 µg/mL, the MIC [14] was over 50 µg/mL and the MIC (Mycoplasma gallisepticum) was 1.56 µg/mL (≈ 1.7 µM). It also gave an MIC (Mycoplasma synoviae; [21]) of 12.5 µg/mL (≈ 13.6 µM), an MIC (Mycoplasma hyorhinis; [22]) of over 50 µg/mL and an MIC (Mycoplasma hyopneumoniae) of over 25 µg/mL.
`CCC1OC(=O)CC(O)C(C)C(OC2OC(C)C(OC3CC(C)(O)C(O)C(C)O3)C(N(C)C)C2O)C(CCOc2ccc([N+](=O)[O-])cc2)CC(C)C(=O)C=CC(C)=CC1COC1OC(C)C(O)C(OC)C1OC` (stereo not drawn) [Compound 12, 20-DH-20-O-(p-Nitrophenyl)tylosin] was tested, and the MIC ([1]; Staphylococcus aureus, X1.1) was 1 µg/mL (≈ 0.962 µM), the MIC ([2]; Staphylococcus aureus, V41) was 1 µg/mL (≈ 0.962 µM) and the MIC ([3]; Staphylococcus aureus, X400) was 2 µg/mL (≈ 1.92 µM). It also gave an MIC [4] of 1 µg/mL (≈ 0.962 µM), an MIC [5, 15] of 1 µg/mL (≈ 0.962 µM) and an MIC ([6]; Staphylococcus epidermidis EPI2, agar dilution, read-out: MIC) of 0.5 µg/mL (≈ 0.481 µM). For the same compound, the MIC ([7]; Streptococcus pyogenes, C203) was 2 µg/mL (≈ 1.92 µM), the MIC [8, 23] was 16 µg/mL (≈ 15.4 µM) and the MIC [9, 18] was 128 µg/mL (≈ 123 µM). For the same compound, the MIC (Streptococcus Group 9960) was over 128 µg/mL, the MIC [10, 20] was over 128 µg/mL and the MIC ([11]; Haemophilus influenzae, R252) was 128 µg/mL (≈ 123 µM). For the same compound, the MIC (Staphylococcus aureus) was 1.56 µg/mL (≈ 1.5 µM), the MIC (Streptococcus bovis 80) was 25 µg/mL (≈ 24.1 µM) and the MIC [12] was over 50 µg/mL. For the same compound, the MIC [13] was over 50 µg/mL, the MIC [14] was over 50 µg/mL and the MIC (Mycoplasma gallisepticum; [24]) was 0.39 µg/mL (≈ 0.375 µM). For the same compound, the MIC (Mycoplasma synoviae) was 1.56 µg/mL (≈ 1.5 µM), the MIC (Mycoplasma hyorhinis; Mycoplasma) was 50 µg/mL (≈ 48.1 µM) and the MIC (Mycoplasma hyopneumoniae) was over 25 µg/mL.
In the case of `CCC1OC(=O)CC(O)C(C)C(OC2OC(C)C(OC3CC(C)(O)C(O)C(C)O3)C(N(C)C)C2O)C(CCOc2ccc(C(=O)c3ccccc3)cc2)CC(C)C(=O)C=CC(C)=CC1COC1OC(C)C(O)C(OC)C1OC` (stereo not drawn) [Compound 13, 20-DH-20-O-(p-Benzoylphenyl)tylosin], the MIC ([1]; Staphylococcus aureus, X1.1) is reported as 1 µg/mL (≈ 0.91 µM), the MIC ([2]; Staphylococcus aureus, V41) is reported as 1 µg/mL (≈ 0.91 µM) and the MIC ([3]; Staphylococcus aureus, X400) is reported as 4 µg/mL (≈ 3.64 µM). It also gave an MIC [4] of 1 µg/mL (≈ 0.91 µM), an MIC [5, 25] of 2 µg/mL (≈ 1.82 µM) and an MIC [6, 16] of 1 µg/mL (≈ 0.91 µM). For the same compound, the MIC [7, 17] was 2 µg/mL (≈ 1.82 µM), the MIC ([8]; Streptococcus pneumoniae) was 1 µg/mL (≈ 0.91 µM) and the MIC [9] was 4 µg/mL (≈ 3.64 µM). The MIC (Streptococcus Group 9960) was 4 µg/mL (≈ 3.64 µM), the MIC ([10]; Haemophilus influenzae) was over 128 µg/mL and the MIC [11, 26] was over 128 µg/mL. It also gave an MIC (Staphylococcus aureus; [27]) of 1.56 µg/mL (≈ 1.42 µM), an MIC (Streptococcus bovis 80) of 1.56 µg/mL (≈ 1.42 µM) and an MIC [12] of over 50 µg/mL. It also gave an MIC [13] of over 50 µg/mL, an MIC [14] of over 50 µg/mL and an MIC (Mycoplasma gallisepticum; [24]) of 0.78 µg/mL (≈ 0.71 µM). It also gave an MIC (Mycoplasma synoviae) of 6.25 µg/mL (≈ 5.69 µM), an MIC (Mycoplasma hyorhinis; Mycoplasma) of 6.25 µg/mL (≈ 5.69 µM) and an MIC (Mycoplasma hyopneumoniae) of 3.12 µg/mL (≈ 2.84 µM).
Compound `CCC1OC(=O)CC(O)C(C)C(OC2OC(C)C(OC3CC(C)(O)C(O)C(C)O3)C(N(C)C)C2O)C(CCOc2ccc(OC)cc2)CC(C)C(=O)C=CC(C)=CC1COC1OC(C)C(O)C(OC)C1OC` (stereo not drawn) [Compound 14, 20-DH-20-O-(p-Methoxyphenyl)tylosin] has an MIC ([1]; Staphylococcus aureus X1.1, agar dilution, read-out: MIC) of 0.5 µg/mL (≈ 0.488 µM), an MIC ([2]; Staphylococcus aureus V41, penicillin-resistant strain, agar dilution, read-out: MIC) of 0.5 µg/mL (≈ 0.488 µM) and an MIC [3, 28] of 2 µg/mL (≈ 1.95 µM). It also gave an MIC [4] of 1 µg/mL (≈ 0.976 µM), an MIC [5, 25] of 2 µg/mL (≈ 1.95 µM) and an MIC [6, 16] of 1 µg/mL (≈ 0.976 µM). For the same compound, the MIC [7, 17] was 1 µg/mL (≈ 0.976 µM), the MIC [8, 23] was 8 µg/mL (≈ 7.81 µM) and the MIC [9, 18] was 128 µg/mL (≈ 125 µM). The MIC (Streptococcus Group 9960; [19]) was 128 µg/mL (≈ 125 µM), the MIC ([10]; Haemophilus influenzae) was 128 µg/mL (≈ 125 µM) and the MIC ([11]; Haemophilus influenzae, R252) was over 128 µg/mL. It also gave an MIC (Staphylococcus aureus) of 1.56 µg/mL (≈ 1.52 µM), an MIC (Streptococcus bovis 80) of 25 µg/mL (≈ 24.4 µM) and an MIC [12] of over 50 µg/mL. For the same compound, the MIC [13] was over 50 µg/mL, the MIC [14] was over 50 µg/mL and the MIC (Mycoplasma gallisepticum; [24]) was 0.78 µg/mL (≈ 0.762 µM). The MIC (Mycoplasma synoviae; [21]) was 6.25 µg/mL (≈ 6.1 µM), the MIC (Mycoplasma hyorhinis; [22]) was over 50 µg/mL and the MIC (Mycoplasma hyopneumoniae) was over 25 µg/mL.
`CCC1OC(=O)CC(O)C(C)C(OC2OC(C)C(OC3CC(C)(O)C(O)C(C)O3)C(N(C)C)C2O)C(CCOc2cccc(N(C)C)c2)CC(C)C(=O)C=CC(C)=CC1COC1OC(C)C(O)C(OC)C1OC` (stereo not drawn) [Compound 16, 20-DH-20-O-[m-(N,N-Dimethylamino)phenyl]tylosin] showed an MIC ([1]; Staphylococcus aureus, X1.1) of 1 µg/mL (≈ 0.964 µM), an MIC ([2]; Staphylococcus aureus, V41) of 1 µg/mL (≈ 0.964 µM) and an MIC [3, 28] of 2 µg/mL (≈ 1.93 µM). It also gave an MIC [4] of 1 µg/mL (≈ 0.964 µM), an MIC [5, 15] of 1 µg/mL (≈ 0.964 µM) and an MIC [6, 16] of 1 µg/mL (≈ 0.964 µM). The MIC [7, 17] was 1 µg/mL (≈ 0.964 µM), the MIC [8, 23] was 8 µg/mL (≈ 7.71 µM) and the MIC [9, 18] was 64 µg/mL (≈ 61.7 µM). It also gave an MIC (Streptococcus Group 9960; [19]) of over 128 µg/mL, an MIC ([10]; Haemophilus influenzae) of 128 µg/mL (≈ 123 µM) and an MIC [11, 26] of over 128 µg/mL. For the same compound, the MIC (Staphylococcus aureus; [27]) was 1.56 µg/mL (≈ 1.5 µM), the MIC (Streptococcus bovis 80) was 50 µg/mL (≈ 48.2 µM) and the MIC [12] was over 50 µg/mL. The MIC [13] was over 50 µg/mL, the MIC [14] was over 50 µg/mL and the MIC (Mycoplasma gallisepticum; [24]) was 1.56 µg/mL (≈ 1.5 µM). For the same compound, the MIC (Mycoplasma synoviae; [21]) was 6.25 µg/mL (≈ 6.03 µM), the MIC (Mycoplasma hyorhinis; Mycoplasma) was 50 µg/mL (≈ 48.2 µM) and the MIC (Mycoplasma hyopneumoniae) was over 25 µg/mL.
